Results on 80 compounds are retold here after ChEMBL document CHEMBL1151859, “Structure-activity relationship studies of a novel series of anthrax lethal factor inhibitors” (Bioorg Med Chem, 2009).

pIC50, pKi: −log10 of the molar value.

This assay deals with T1, Lethal factor (Bacillus anthracis, UniProt P15917).
T1 sequence (P15917 whole entry): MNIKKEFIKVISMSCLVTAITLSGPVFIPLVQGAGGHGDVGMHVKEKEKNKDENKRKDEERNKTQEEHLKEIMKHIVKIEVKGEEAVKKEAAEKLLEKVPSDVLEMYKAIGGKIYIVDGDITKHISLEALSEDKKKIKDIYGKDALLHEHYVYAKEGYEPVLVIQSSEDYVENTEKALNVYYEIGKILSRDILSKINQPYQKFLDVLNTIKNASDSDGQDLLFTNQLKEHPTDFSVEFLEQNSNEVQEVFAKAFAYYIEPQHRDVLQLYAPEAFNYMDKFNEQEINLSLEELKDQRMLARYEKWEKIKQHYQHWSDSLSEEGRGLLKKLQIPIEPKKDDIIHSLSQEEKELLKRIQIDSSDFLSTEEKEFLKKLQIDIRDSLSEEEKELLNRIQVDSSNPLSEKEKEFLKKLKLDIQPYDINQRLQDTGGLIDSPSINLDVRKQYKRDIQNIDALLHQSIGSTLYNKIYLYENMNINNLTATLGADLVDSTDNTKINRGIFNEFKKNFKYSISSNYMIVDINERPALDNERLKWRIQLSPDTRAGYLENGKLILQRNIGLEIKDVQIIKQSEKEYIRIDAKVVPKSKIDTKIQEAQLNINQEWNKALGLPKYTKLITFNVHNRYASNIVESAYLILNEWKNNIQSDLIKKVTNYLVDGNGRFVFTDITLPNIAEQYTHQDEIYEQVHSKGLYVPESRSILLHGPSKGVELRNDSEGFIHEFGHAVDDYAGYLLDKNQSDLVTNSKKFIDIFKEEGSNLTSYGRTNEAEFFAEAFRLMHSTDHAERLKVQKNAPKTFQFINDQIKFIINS
Description: Inhibition of Bacillus anthracis lethal factor assessed as cleavage of MAPKK by fluorescence peptide cleavage assay.
`Cc1c(S(=O)(=O)Nc2sccc2-c2nc3ccccc3s2)sc2ccccc12`: the negative-log IC50 (pIC50) is 5.00.
The same measure, in the same setting: the value for `Cc1csc(NS(=O)(=O)c2ccc(OC(F)(F)F)cc2)c1-c1nc2ccccc2s1` was 4.74.
Turning to `Cc1nnc(-c2cccc(S(=O)(=O)Nc3sccc3-c3nc4ccccc4s3)c2)o1`, the pIC50 was 4.60.
On to `O=C(NCc1ccc(S(=O)(=O)Nc2sccc2-c2nc3ccccc3s2)s1)c1ccc(Cl)cc1`, for which the pIC50 is 4.85.
With `COc1ccc(S(=O)(=O)Nc2scc(C)c2-c2nc3ccccc3s2)cc1OC`, the negative-log IC50 (pIC50) was 4.47.
Still for that read-out and setting: then `O=S(=O)(Nc1sccc1-c1nc2ccccc2s1)c1ccc(-c2cnco2)cc1`, with 4.89; and `COc1ccc(-c2ccc(S(=O)(=O)Nc3ccccc3-c3nc4ccccc4s3)cc2)cc1`, with under 4.00.
In the case of `O=S(=O)(Nc1sccc1-c1nc2ccccc2s1)c1ccc2ccccc2c1`, the pIC50 was 5.10.
Take `Cc1c(Cl)cccc1S(=O)(=O)Nc1sccc1-c1nc2ccccc2s1`: the negative logarithm of the IC50 (pIC50) was under 4.30.
Still for that read-out and setting: the value for `O=S(=O)(Nc1nc2ccccc2s1)c1ccc(-c2ccc(Cl)cc2)cc1` was under 4.30.
On the same count and under the same terms, then `O=S(=O)(Nc1sccc1-c1nc2ccccc2s1)c1ccc2c(c1)OCCO2`, with 4.57; and `Cc1csc(N(S(=O)(=O)c2ccc(OC(F)(F)F)cc2)S(=O)(=O)c2ccc(OC(F)(F)F)cc2)c1-c1nc2ccccc2s1`, with under 4.00.
On the same count and under the same terms, then `O=S(=O)(Nc1sccc1-c1nc2ccccc2s1)c1ccco1`, with under 4.30.
With `O=S(=O)(Nc1ccccc1-c1nc2ccccc2s1)c1ccc(-c2ccc(Cl)cc2)cc1`, the negative-log IC50 (pIC50) is 4.00.
The same measure, in the same setting: then `Cc1csc(NS(=O)(=O)c2cccc(-c3ccccc3)c2)c1-c1nc2ccccc2s1`, with 4.72.
Same read-out and setting: the value for `O=S(=O)(Nc1sccc1-c1nc2ccccc2s1)c1ccc(F)c(Cl)c1` was 4.89.
Same read-out and setting: then `Cc1csc(NS(=O)(=O)c2cccc(OC(F)(F)F)c2)c1-c1nc2ccccc2s1`, with 4.96; and `O=S(=O)(Nc1sccc1-c1nc2ccccc2s1)c1ccc(C(F)(F)F)cc1`, with 4.96; and `Cc1csc(NS(=O)(=O)c2ccccc2C(F)(F)F)c1-c1nc2ccccc2s1`, with under 4.00.
For `Cc1csc(N)c1-c1nc2ccccc2s1`, the negative logarithm of the IC50 (pIC50) is under 4.00.
As to `O=S(=O)(Nc1sccc1-c1nc2ccccc2s1)c1ccc(-n2cccn2)cc1`, the pIC50 is 5.10.
Consider `COc1ccc(-c2ccc(S(=O)(=O)Nc3sccc3-c3nc4ccccc4s3)cc2Cl)cc1`, for which the negative-log IC50 (pIC50) was 5.52.
Turning to `Cc1csc(NS(=O)(=O)c2ccc(Cl)c(Cl)c2)c1-c1nc2ccccc2s1`, the pIC50 was under 4.00.
For the compound `Cc1csc(N(S(=O)(=O)c2cccc(C(F)(F)F)c2)S(=O)(=O)c2cccc(C(F)(F)F)c2)c1-c1nc2ccccc2s1`, the pIC50 was under 4.00.
Same read-out and setting: then `O=S(=O)(Nc1sccc1-c1nc2ccccc2s1)c1ccc(Br)c(Cl)c1`, with 5.35.
As to `Cc1csc(NS(=O)(=O)c2cc(Cl)c(Cl)cc2Cl)c1-c1nc2ccccc2s1`, the negative-log IC50 (pIC50) is 4.82.
In the case of `Cc1csc(NS(=O)(=O)c2cccc(Cl)c2F)c1-c1nc2ccccc2s1`, the negative logarithm of the IC50 (pIC50) is 4.00.
With `Cc1csc(NS(=O)(=O)c2ccc(Cl)cc2)c1-c1nc2ccccc2s1`, the negative-log IC50 (pIC50) is 4.82 and the negative-log Ki (pKi) is 5.11.
For `COc1ccc(-c2cccc(S(=O)(=O)Nc3sccc3-c3nc4ccccc4s3)c2)cc1`, the negative logarithm of the IC50 (pIC50) is 4.85.
Same read-out and setting: the value for `Cc1csc(NS(=O)(=O)c2ccc(F)c(Cl)c2)c1-c1nc2ccccc2s1` was under 4.00.
Take `O=S(=O)(Nc1oncc1-c1nc2ccccc2s1)c1ccc(-c2ccc(Cl)cc2)cc1`: the negative logarithm of the IC50 (pIC50) was under 4.00.
On the same count and under the same terms, then `O=S(=O)(Nc1sccc1-c1nc2ccccc2s1)c1ccc(-c2ccc(Cl)c(Cl)c2)cc1`, with 5.14.
Turning to `N#C/C(=C\c1ccc([N+](=O)[O-])s1)C(=O)c1ccco1`, the negative-log IC50 (pIC50) was 4.72 and the negative logarithm of the Ki (pKi) is 5.18.
`O=S(=O)(Nc1sccc1-c1nc2ccccc2s1)c1ccc(-c2ccc(OC(F)(F)F)cc2)cc1`: the negative-log IC50 (pIC50) was 5.41.
Regarding `COc1ccc(S(=O)(=O)Nc2sccc2-c2nc3ccccc3s2)cc1`, the negative logarithm of the IC50 (pIC50) is 4.74.
Take `O=S(=O)(Nc1sccc1-c1nc2ccccc2s1)c1ccc2c(c1)CCO2`: the negative logarithm of the IC50 (pIC50) is 4.66.
Same read-out and setting: the value for `Cc1ccc(S(=O)(=O)Nc2sccc2-c2nc3ccccc3s2)cc1[N+](=O)[O-]` was 5.00; that for `O=S(=O)(Nc1sccc1-c1nc2ccccc2s1)c1ccc(S(=O)(=O)N2CCOCC2)cc1` was 4.77.
With `CC(=O)Nc1ccc(S(=O)(=O)Nc2scc(C)c2-c2nc3ccccc3s2)cc1`, the negative-log IC50 (pIC50) was 4.85.
With `O=S(=O)(Nc1sccc1-c1nc2ccccc2s1)c1ccc2cc(Cl)ccc2c1`, the pIC50 is 4.96.
Still for that read-out and setting: then `Cc1c(S(=O)(=O)Nc2sccc2-c2nc3ccccc3s2)cnn1-c1ccccc1`, with under 4.30; and `CN1CCOc2cc(S(=O)(=O)Nc3sccc3-c3nc4ccccc4s3)cnc21`, with 4.57.
For the compound `O=S(=O)(Nc1sccc1-c1nc2ccccc2s1)c1ccccc1C(F)(F)F`, the negative logarithm of the IC50 (pIC50) was 5.03.
On to `Cc1csc(NS(=O)(=O)c2ccc3ccccc3c2)c1-c1nc2ccccc2s1`, for which the negative logarithm of the IC50 (pIC50) was 4.92.
`CC(C)(C)c1ccc(S(=O)(=O)Nc2sccc2-c2nc3ccccc3s2)cc1`: the pIC50 is 4.89.
As to `O=S(=O)(Nc1sccc1-c1nc2ccccc2s1)c1ccc(-c2cncs2)cc1`, the pIC50 was 4.92.
Take `O=S(=O)(NCCc1nc2ccccc2s1)c1ccc(-c2ccc(Cl)cc2)cc1`: the pIC50 was under 4.30.
`COc1ccc(-c2ccc(S(=O)(=O)Nc3sccc3-c3nc4ccccc4s3)cc2)cc1OC`: the pIC50 was 5.05.
Same read-out and setting: the value for `COc1ccc(-c2ccc(S(=O)(=O)Nc3scc(C)c3-c3nc4ccccc4s3)cc2)cc1` was 4.68; that for `COc1ccc(-c2cccc(S(=O)(=O)Nc3scc(C)c3-c3nc4ccccc4s3)c2)cc1` was 4.80.
As to `O=S(=O)(Nc1sccc1-c1nc2ccccc2s1)c1ccc(Oc2ccccc2Cl)cc1`, the negative-log IC50 (pIC50) is 5.05.
The same measure, in the same setting: the value for `O=S(=O)(Nc1sccc1-c1nc2ccccc2s1)c1cccc(C(F)(F)F)c1` was 4.80; that for `CC(=O)Nc1ccc(S(=O)(=O)Nc2sccc2-c2nc3ccccc3s2)cc1` was 4.62; that for `Cc1ccc(S(=O)(=O)Nc2nc3ccccc3s2)cc1Cl` was 4.55.
On the same count and under the same terms, then `CN1CCOc2cc(S(=O)(=O)Nc3sccc3-c3nc4ccccc4s3)ccc21`, with 4.64; and `Cc1csc(NS(=O)(=O)c2ccc(Cl)c(C(F)(F)F)c2)c1-c1nc2ccccc2s1`, with 4.96.
Still for that read-out and setting: then `O=S(=O)(Nc1sccc1-c1nc2ccccc2s1)c1ccc(Cl)c(C(F)(F)F)c1`, with 5.00; and `Cc1csc(NS(=O)(=O)c2cccc(C(F)(F)F)c2)c1-c1nc2ccccc2s1`, with 5.03.
Consider `Cc1cc(C)n(-c2ccc(S(=O)(=O)Nc3sccc3-c3nc4ccccc4s3)cc2)n1`, for which the pIC50 was 4.96.
On the same count and under the same terms, the value for `O=S(=O)(Nc1sccc1-c1nc2ccccc2s1)c1ccc(OC(F)(F)F)cc1` was 5.02; that for `Cc1csc(NS(=O)(=O)c2cccc(-c3ccc(Cl)cc3)c2)c1-c1nc2ccccc2s1` was 4.66; that for `O=S(=O)(Nc1sccc1-c1nc2ccccc2s1)c1ccc(F)cc1` was 4.80.
`O=S(=O)(Nc1sccc1-c1nc2ccccc2s1)c1ccc(-c2ccno2)s1`: the pIC50 is 4.72.
The same measure, in the same setting: the value for `Cc1csc(N(S(=O)(=O)c2ccc(F)cc2)S(=O)(=O)c2ccc(F)cc2)c1-c1nc2ccccc2s1` was under 4.00.
Regarding `Cc1csc(NS(=O)(=O)c2ccccc2)c1-c1nc2ccccc2s1`, the pIC50 was under 4.00.
On to `Cc1ccc(S(=O)(=O)Nc2sccc2-c2nc3ccccc3s2)cc1`, for which the pIC50 was 4.89.
On to `Cc1cc(S(=O)(=O)Nc2scc(C)c2-c2nc3ccccc3s2)ccc1F`, for which the pIC50 is 4.77.
Regarding `O=S(=O)(Nc1sccc1-c1nc2ccccc2s1)c1ccc(Cl)c(Cl)c1`, the pIC50 is 5.05.
The same measure, in the same setting: then `Nc1sccc1-c1nc2ccccc2s1`, with under 4.00; and `Cc1csc(NS(=O)(=O)c2ccc(Cl)cc2F)c1-c1nc2ccccc2s1`, with 4.72; and `Cc1ccc(S(=O)(=O)Nc2scc(C)c2-c2nc3ccccc3s2)cc1`, with under 4.00.
Turning to `COc1ccc(-c2ccc(S(=O)(=O)Nc3nc4ccccc4s3)cc2)cc1`, the negative-log IC50 (pIC50) is under 4.30.
Regarding `O=S(=O)(Nc1sccc1-c1nc2ccccc2s1)c1ccc2nonc2c1`, the pIC50 was 4.52.
For the compound `O=S(=O)(Nc1sccc1-c1nc2ccccc2s1)c1cccc(Cl)c1F`, the pIC50 is 4.52.
`CS(=O)(=O)CS(=O)(=O)Nc1sccc1-c1nc2ccccc2s1`: the negative-log IC50 (pIC50) was 4.72.
With `COc1ccc(S(=O)(=O)Nc2sccc2-c2nc3ccccc3s2)cc1OC`, the pIC50 was 4.72.
Turning to `O=S(=O)(Nc1sccc1-c1nc2ccccc2s1)c1ccc(Br)cc1`, the pIC50 is 5.10.
Same read-out and setting: the value for `COc1ccc(S(=O)(=O)Nc2scc(C)c2-c2nc3ccccc3s2)cc1` was 4.34; that for `Cc1ccc(S(=O)(=O)Nc2scc(C)c2-c2nc3ccccc3s2)cc1Cl` was 5.05; that for `Cc1csc(NS(=O)(=O)c2ccc(-c3ccccc3)cc2)c1-c1nc2ccccc2s1` was 4.77.
